Assay results from patent publication US8501446B2 (Vertex Pharmaceuticals Incorporated, priority 2004, dated 2013).

Columns and labels:
[1] = target: T1, full length Aurora-A (AA 1-403) (Homo sapiens, UniProt O14965); assay: Aurora-A inhibition assay, standard coupled enzyme system; type: biochemical; conditions: average Ki if more than one value determined
T1 construct: full length Aurora-A (AA 1-403)
T1 sequence (O14965 1-403): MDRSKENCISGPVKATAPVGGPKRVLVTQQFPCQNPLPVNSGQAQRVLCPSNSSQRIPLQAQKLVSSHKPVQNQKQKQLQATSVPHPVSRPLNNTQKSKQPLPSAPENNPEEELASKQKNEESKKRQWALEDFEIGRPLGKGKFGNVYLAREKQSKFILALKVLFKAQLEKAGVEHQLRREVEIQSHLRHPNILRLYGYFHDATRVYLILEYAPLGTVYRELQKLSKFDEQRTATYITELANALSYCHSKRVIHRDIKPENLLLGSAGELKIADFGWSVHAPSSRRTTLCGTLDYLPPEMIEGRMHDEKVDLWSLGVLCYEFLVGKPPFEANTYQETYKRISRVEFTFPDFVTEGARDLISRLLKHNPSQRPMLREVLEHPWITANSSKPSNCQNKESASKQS
Procedure: Compounds were screened for their ability to inhibit full length Aurora-A (AA 1-403) activity using a standard coupled enzyme system (Fox et al., Protein Sci. 7, pp. 2249 (1998)). Reactions were carried out in a solution containing 100 mM HEPES (pH 7.5), 10 mM MgCl2, 25 mM NaCl, 300 μM NADH, 1 mM DTT and 3% DMSO. Final substrate concentrations in the assay were 200 μM ATP (Sigma Chemicals, St Louis, Mo.) and 800 μM peptide (LRRASLG, American Peptide, Sunnyvale, Calif.). Reactions were carried out at 30° C. and 35 nM Aurora-A. Final concentrations of the components of the coupled enzyme system were 2.5 mM phosphoenolpyruvate, 200 μM NADH, 60 μg/ml pyruvate kinase and 20 μg/ml lactate dehydrogenase.
An assay stock buffer solution was prepared containing all of the reagents listed above with the exception of ATP and the test compound of interest. The assay stock buffer solution (60 μl) was incubated in a 96 well plate with 2 μl of the test compound of interest at final concentrations spanning 0.002 μM to 30 μM at 30° C. for 10 min. Typically, a 12 point titration was conducted by preparing serial dilutions (from 1 mM compound stocks) with DMSO of the test compounds in daughter plates. The reaction was initiated by the addition of 5 μl of ATP (final concentration 200 μM). Rates of reaction were obtained using a Molecular Devices Spectramax plate reader (Sunnyvale, Calif.) over 10 min at 30° C. The Ki values were determined from the rate data as a function of inhibitor concentration using computerized nonlinear regression (Prism 3.0, Graphpad Software, San Diego, Calif.). Aurora-C activity was screened in a similar manner using Aurora-C protein. Aurora-B activity was screened using a radioactive assay, such as described in Examples 1 and 2, but using Aurora-B protein.

[2] = target: T2, ROCK I (AA 6-553) (Homo sapiens, UniProt Q13464); assay: ROCK inhibition assay, standard coupled enzyme system ("Enzyme"); type: biochemical; conditions: enzyme-linked assay
T2 construct: ROCK I (AA 6-553)
T2 sequence (Q13464 6-553, species assumed): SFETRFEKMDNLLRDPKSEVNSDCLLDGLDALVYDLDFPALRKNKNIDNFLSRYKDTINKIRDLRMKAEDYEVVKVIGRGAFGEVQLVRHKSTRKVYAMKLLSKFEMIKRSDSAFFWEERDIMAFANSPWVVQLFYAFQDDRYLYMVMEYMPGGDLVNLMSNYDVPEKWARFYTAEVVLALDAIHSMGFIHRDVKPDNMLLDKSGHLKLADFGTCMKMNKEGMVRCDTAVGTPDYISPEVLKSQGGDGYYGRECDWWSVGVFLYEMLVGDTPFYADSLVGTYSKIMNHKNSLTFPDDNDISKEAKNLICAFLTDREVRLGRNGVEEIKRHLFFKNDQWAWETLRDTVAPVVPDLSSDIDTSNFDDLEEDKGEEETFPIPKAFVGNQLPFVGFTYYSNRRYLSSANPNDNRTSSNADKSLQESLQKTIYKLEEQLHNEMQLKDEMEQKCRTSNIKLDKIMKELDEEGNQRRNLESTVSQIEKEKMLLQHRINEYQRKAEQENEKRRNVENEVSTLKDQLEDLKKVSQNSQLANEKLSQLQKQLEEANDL
Procedure: Compounds were screened for their ability to inhibit ROCK I (AA 6-553) activity using a standard coupled enzyme system (Fox et al. (1998) Protein Sci. 7, 2249). Reactions were carried out in a solution containing 100 mM HEPES (pH 7.5), 10 mM MgCl2, 25 mM NaCl, 2 mM DTT and 1.5% DMSO. Final substrate concentrations in the assay were 45 μM ATP (Sigma Chemicals, St Louis, Mo.) and 200 μM peptide (American Peptide, Sunnyvale, Calif.). Reactions were carried out at 30° C. and 45 nM ROCK L. Final concentrations of the components of the coupled enzyme system were 2.5 mM phosphoenolpyruvate, 350 μM NADH, 30 μg/ml pyruvate kinase and 10 μg/ml lactate dehydrogenase.

CNC(=O)c1cnc2[nH]cc(-c3ncc(F)c(N[C@@H](C)c4ccc(F)cc4)n3)c2c1 [Compound 309]
Ki [1]: 500 to 5000 nM
Ki [2]: 500 to 5000 nM

CC(=O)c1ccc(-c2c[nH]c3ncc(-c4ccccc4)cc23)cc1 [Compound 231]
Ki [1]: < 500 nM
Ki [2]: < 500 nM

COCCNC(=O)[C@H](C)Nc1nc(-c2c[nH]c3ncc(Cl)cc23)ncc1F [Compound 392]
Ki [1]: < 500 nM
Ki [2]: 500 to 5000 nM

CCNC(=O)c1cccc(-c2c[nH]c3ncc(-c4cc(Cl)cc(Cl)c4)cc23)c1 [Compound 226]
Ki [1]: 500 to 5000 nM

O=C(Nc1cccc(-c2c[nH]c3ncc(Cl)cc23)n1)c1cccc(Cl)c1 [Compound 282]
Ki [1]: < 500 nM

NC(=O)c1ccc(-c2c[nH]c3ncc(CCc4ccccc4)cc23)cc1 [Compound 303]
Ki [2]: < 500 nM

CNc1cccc(-c2cn(C)c3ncc(Cl)cc23)n1 [Compound 292]
Ki [1]: > 5000 nM
Ki [2]: 500 to 5000 nM

COc1cccc(-c2cnc3[nH]cc(-c4ccc(C(N)=O)cc4)c3c2)c1 [Compound 239]
Ki [1]: < 500 nM
Ki [2]: < 500 nM

c1ccc(Nc2cccc(-c3c[nH]c4ncc(-c5ccccc5)cc34)n2)cc1 [Compound 265]
Ki [1]: < 500 nM
Ki [2]: 500 to 5000 nM

CC(=O)NCc1ccc(-c2c[nH]c3ncc(-c4ccccc4)cc23)cc1 [Compound 230]
Ki [1]: 500 to 5000 nM
Ki [2]: 500 to 5000 nM

Clc1cnc2[nH]cc(-c3cccc(Br)n3)c2c1 [Compound 240]
Ki [1]: < 500 nM
Ki [2]: 500 to 5000 nM

CCOc1cnc(-c2c[nH]c3ncc(Cl)cc23)nc1N[C@@H](C)C(=O)NCC(F)(F)F [Compound 408]
Ki [1]: < 500 nM
Ki [2]: 500 to 5000 nM

CNC(=O)C[C@H](C)Nc1nc(-c2c[nH]c3ncc(Cl)cc23)ncc1F [Compound 402]
Ki [1]: 500 to 5000 nM
Ki [2]: 500 to 5000 nM

NC(=O)c1ccc(-c2c[nH]c3ncc(-c4ccoc4)cc23)cc1 [Compound 235]
Ki [1]: < 500 nM
Ki [2]: < 500 nM

CC(C)CCNC(=O)[C@H](C)Nc1nc(-c2c[nH]c3ncc(Cl)cc23)ncc1F [Compound 464]
Ki [1]: 500 to 5000 nM

C[C@@H](Nc1nc(-c2c[nH]c3ncc(Cl)cc23)ncc1F)c1ccc(N)cc1 [Compound 313]
Ki [1]: < 500 nM
Ki [2]: 500 to 5000 nM

NC(=O)c1ccc(-c2c[nH]c3ncc(-c4ccsc4)cc23)cc1 [Compound 236]
Ki [1]: < 500 nM

N#Cc1cc(-c2c[nH]c3ncc(Cl)cc23)nc(N2CCNCC2)c1 [Compound 399]
Ki [1]: < 500 nM
Ki [2]: < 500 nM

Nc1cccc(-c2c[nH]c3ncc(Cl)cc23)n1 [Compound 246]
Ki [1]: 500 to 5000 nM
Ki [2]: 500 to 5000 nM

Fc1cnc(-c2c[nH]c3ncc(Cl)cc23)nc1NC1CCNC1 (stereo not drawn) [Compound 344]
Ki [1]: < 500 nM
Ki [2]: < 500 nM

CC(=O)N1CCC(CNc2nc(-c3c[nH]c4ncc(Cl)cc34)ncc2F)CC1 [Compound 383]
Ki [1]: < 500 nM
Ki [2]: 500 to 5000 nM

CNS(=O)(=O)c1ccc(-c2cnc3[nH]cc(-c4ccc(C(N)=O)cc4)c3c2)cc1 [Compound 256]
Ki [1]: < 500 nM
Ki [2]: < 500 nM

Fc1cnc(-c2c[nH]c3ncc(Cl)cc23)nc1N[C@@H]1CCNC1 [Compound 381]
Ki [1]: < 500 nM
Ki [2]: < 500 nM

C[C@@H](CC(=O)O)Nc1nc(-c2c[nH]c3ncc(Cl)cc23)ncc1F [Compound 401]
Ki [1]: < 500 nM
Ki [2]: 500 to 5000 nM

C[C@H](Nc1nc(-c2c[nH]c3ncc(Cl)cc23)ncc1F)C(=O)NC1CCS(=O)(=O)C1 (stereo partly drawn) [Compound 390]
Ki [1]: 500 to 5000 nM
Ki [2]: 500 to 5000 nM

CN(C)c1cccc(-c2c[nH]c3ncc(-c4ccccc4)cc23)n1 [Compound 253]
Ki [1]: < 500 nM
Ki [2]: < 500 nM

NCCC[C@H](Nc1nc(-c2c[nH]c3ncc(Cl)cc23)ncc1F)C(=O)O [Compound 403]
Ki [1]: 500 to 5000 nM

O=C(Cc1ccccc1)Nc1cccc(-c2c[nH]c3ncc(Cl)cc23)n1 [Compound 280]
Ki [1]: < 500 nM

CNS(=O)(=O)c1ccc(-c2c[nH]c3ncc(-c4ccccc4)cc23)cc1 [Compound 233]
Ki [2]: 500 to 5000 nM

CC(C)C(=O)Nc1cccc(-c2c[nH]c3ncc(Cl)cc23)n1 [Compound 279]
Ki [1]: 500 to 5000 nM
